Experimental data published in US20160136246A1, “Novel Uses of GLP-1 Receptor Agonists in Patients Treated with Insulin and/or Suffering from Type 1 Diabetes” (NOVO NORDISK A/S, priority 2013, published 2016).

Experiments:
[1] = test system: adults with type 1 diabetes; experiment: Randomised, double-blind crossover trial of liraglutide adjunct to insulin, 4 weeks of treatment: glycaemic control and safety; format: in vivo, human; conditions: for Asymptomatic hypoglycaemic episodes, N = number of subjects / Asymptomatic hypoglycaemic episodes, percentage of subjects / Documented symptomatic hypoglycaemic episodes, N = number of subjects / Documented symptomatic hypoglycaemic episodes, percentage of subjects / Probable symptomatic hypoglycaemic episodes, E = number of events / Probable symptomatic hypoglycaemic episodes, N = number of subjects / Probable symptomatic hypoglycaemic episodes, percentage of subjects / Severe hypoglycaemic episodes, E = number of events / Severe hypoglycaemic episodes, N = number of subjects / Severe hypoglycaemic episodes, percentage of subjects / Total ADA classified hypoglycaemic episodes, E = number of events / Total ADA classified hypoglycaemic episodes, N = number of subjects / Total ADA classified hypoglycaemic episodes, percentage of subjects: during treatment
Procedure: Subjects received target dose for a minimum of 2 weeks.
After 4 weeks of treatment, estimated treatment differences in insulin dose, HbA1c, pulse and body weight were assessed. Hypoglycaemia and hypoglycaemic episodes and overall safety parameters were assessed throughout the treatment period.
Hypoglycaemia and/or hypoglycaemic episodes were defined and assessed according to the ADA Hypoglycaemic Classification (FIG. 3).

[2] = test system: adults with type 1 diabetes; experiment: Stepwise hypoglycaemic clamp at the end of each treatment period; format: in vivo, human
Procedure: A stepwise hypoglycaemic clamp was performed at the end of each treatment period via controlled i.v. insulin/glucose infusion (FIG. 5). The successive plasma glucose (PG) levels were 5.5, 3.5, 2.5 mmol/L (nadir), and 4.0 mmol/L (recovery). Counterregulatory hormones (glucagon, adrenalin, noradrenalin, cortisol, and growth hormone) and vital signs (pulse, blood pressure) were measured at each successive PG level during the clamp. Glucose infusion rate was also assessed.

[3] = 0.6 mg liraglutide, during the trial
[4] = 1.2 mg liraglutide, during the trial
[5] = 1.8 mg liraglutide, during the trial

CCCCCCCCCCCCCCCC(=O)N[C@@H](CCC(=O)NCCCC[C@H](NC(=O)[C@H](C)NC(=O)[C@H](C)NC(=O)[C@H](CCC(N)=O)NC(=O)CNC(=O)[C@H](CCC(=O)O)NC(=O)[C@H](CC(C)C)NC(=O)[C@H](Cc1ccc(O)cc1)NC(=O)[C@H](CO)NC(=O)[C@H](CO)NC(=O)[C@@H](NC(=O)[C@H](CC(=O)O)NC(=O)[C@H](CO)NC(=O)[C@@H](NC(=O)[C@H](Cc1ccccc1)NC(=O)[C@@H](NC(=O)CNC(=O)[C@H](CCC(=O)O)NC(=O)[C@H](C)NC(=O)[C@@H](N)Cc1cnc[nH]1)[C@@H](C)O)[C@@H](C)O)C(C)C)C(=O)N[C@@H](CCC(=O)O)C(=O)N[C@@H](Cc1ccccc1)C(=O)N[C@H](C(=O)N[C@@H](C)C(=O)N[C@@H](Cc1c[nH]c2ccccc12)C(=O)N[C@@H](CC(C)C)C(=O)N[C@H](C(=O)N[C@@H](CCCNC(=N)N)C(=O)NCC(=O)N[C@@H](CCCNC(=N)N)C(=O)NCC(=O)O)C(C)C)[C@@H](C)CC)C(=O)O [liraglutide]
AEs leading to withdrawal, E = number of events [1, 3]: 1 | AEs leading to withdrawal, N = number of subjects [1, 3]: 1 | AEs leading to withdrawal, percentage of subjects [1, 3]: 6.7% | Abdominal distention, E = number of events [1, 3]: 1 | Abdominal distention, N = number of subjects [1, 3]: 1 | Abdominal distention, percentage of subjects [1, 3]: 6.7% | Abdominal pain (N % E, given as a single 0) [1, 3]: 0/0 | Adverse events, total number of events, E = number of events [1, 3]: 27 | Adverse events, total number of events, N = number of subjects [1, 3]: 12 | Adverse events, total number of events, percentage of subjects [1, 3]: 80.0% | Diarrhea (N % E, given as a single 0) [1, 3]: 0/ | Dyspepsia (N % E, given as a single 0) [1, 3]: 0/0 | Flatulence, E = number of events [1, 3]: 1 | Flatulence, N = number of subjects [1, 3]: 1 | Flatulence, percentage of subjects [1, 3]: 6.7% | Nausea, E = number of events [1, 3]: 8 | Nausea, N = number of subjects [1, 3]: 8 | Nausea, percentage of subjects [1, 3]: 53.3% | Regurgitation, E = number of events [1, 3]: 1 | Regurgitation, N = number of subjects [1, 3]: 1 | Regurgitation, percentage of subjects [1, 3]: 6.7% | Serious AEs (N % E, given as a single 0) [1, 3]: 0/0 | Total number of GI AEs, E = number of events [1, 3]: 12 | Total number of GI AEs, N = number of subjects [1, 3]: 10 | Total number of GI AEs, percentage of subjects [1, 3]: 66.7% | Upper abdominal pain (N % E, given as a single 0) [1, 3]: 0/0 | Vomiting, E = number of events [1, 3]: 1 | Vomiting, N = number of subjects [1, 3]: 1 | Vomiting, percentage of subjects [1, 3]: 6.7% | Asymptomatic hypoglycaemic episodes, N = number of subjects ([1]; 0.6 mg liraglutide): 12 | Asymptomatic hypoglycaemic episodes, percentage of subjects ([1]; 0.6 mg liraglutide): 80.0% | Documented symptomatic hypoglycaemic episodes, N = number of subjects ([1]; 0.6 mg liraglutide): 13 | Documented symptomatic hypoglycaemic episodes, percentage of subjects ([1]; 0.6 mg liraglutide): 86.7% | Probable symptomatic hypoglycaemic episodes, E = number of events ([1]; 0.6 mg liraglutide): 3 | Probable symptomatic hypoglycaemic episodes, N = number of subjects ([1]; 0.6 mg liraglutide): 1 | Probable symptomatic hypoglycaemic episodes, percentage of subjects ([1]; 0.6 mg liraglutide): 6.7% | Severe hypoglycaemic episodes, E = number of events ([1]; 0.6 mg liraglutide): 0 (0) 0/ | Severe hypoglycaemic episodes, N = number of subjects ([1]; 0.6 mg liraglutide): 0 (0) 0/ | Severe hypoglycaemic episodes, percentage of subjects ([1]; 0.6 mg liraglutide): 0 (0) 0/ % | Total ADA classified hypoglycaemic episodes, E = number of events ([1]; 0.6 mg liraglutide): 289 | Total ADA classified hypoglycaemic episodes, N = number of subjects ([1]; 0.6 mg liraglutide): 14 | Total ADA classified hypoglycaemic episodes, percentage of subjects ([1]; 0.6 mg liraglutide): 93.3% | AEs leading to withdrawal, E = number of events [1, 4]: 1 | AEs leading to withdrawal, N = number of subjects [1, 4]: 1 | AEs leading to withdrawal, percentage of subjects [1, 4]: 7.1% | Abdominal distention, E = number of events [1, 4]: 3 | Abdominal distention, N = number of subjects [1, 4]: 3 | Abdominal distention, percentage of subjects [1, 4]: 21.4% | Abdominal pain, E = number of events [1, 4]: 1 | Abdominal pain, N = number of subjects [1, 4]: 1 | Abdominal pain, percentage of subjects [1, 4]: 7.1% | Adverse events, total number of events, E = number of events [1, 4]: 45 | Adverse events, total number of events, N = number of subjects [1, 4]: 14 | Adverse events, total number of events, percentage of subjects [1, 4]: 100% | Diarrhea, E = number of events [1, 4]: 1 | Diarrhea, N = number of subjects [1, 4]: 1 | Diarrhea, percentage of subjects [1, 4]: 7.1% | Dyspepsia, E = number of events [1, 4]: 1 | Dyspepsia, N = number of subjects [1, 4]: 1 | Dyspepsia, percentage of subjects [1, 4]: 7.1% | Flatulence, E = number of events [1, 4]: 1 | Flatulence, N = number of subjects [1, 4]: 1 | Flatulence, percentage of subjects [1, 4]: 7.1% | Nausea, E = number of events [1, 4]: 14 | Nausea, N = number of subjects [1, 4]: 11 | Nausea, percentage of subjects [1, 4]: 78.6% | Regurgitation, E = number of events [1, 4]: 2 | Regurgitation, N = number of subjects [1, 4]: 2 | Regurgitation, percentage of subjects [1, 4]: 14.3% | Serious AEs (N % E, given as a single 0) [1, 4]: 0/0 | Total number of GI AEs, E = number of events [1, 4]: 24 | Total number of GI AEs, N = number of subjects [1, 4]: 12 | Total number of GI AEs, percentage of subjects [1, 4]: 85.7% | Upper abdominal pain (N % E, given as a single 0) [1, 4]: 0/0 | Vomiting, E = number of events [1, 4]: 1 | Vomiting, N = number of subjects [1, 4]: 1 | Vomiting, percentage of subjects [1, 4]: 7.1% | Asymptomatic hypoglycaemic episodes, N = number of subjects ([1]; 1.2 mg liraglutide): 10 | Asymptomatic hypoglycaemic episodes, percentage of subjects ([1]; 1.2 mg liraglutide): 71.4% | Documented symptomatic hypoglycaemic episodes, N = number of subjects ([1]; 1.2 mg liraglutide): 12 | Documented symptomatic hypoglycaemic episodes, percentage of subjects ([1]; 1.2 mg liraglutide): 85.7% | Probable symptomatic hypoglycaemic episodes, E = number of events ([1]; 1.2 mg liraglutide): 1 | Probable symptomatic hypoglycaemic episodes, N = number of subjects ([1]; 1.2 mg liraglutide): 1 | Probable symptomatic hypoglycaemic episodes, percentage of subjects ([1]; 1.2 mg liraglutide): 7.1% | Severe hypoglycaemic episodes, E = number of events ([1]; 1.2 mg liraglutide): 0 (0) 0/ | Severe hypoglycaemic episodes, N = number of subjects ([1]; 1.2 mg liraglutide): 0 (0) 0/ | Severe hypoglycaemic episodes, percentage of subjects ([1]; 1.2 mg liraglutide): 0 (0) 0/ % | Total ADA classified hypoglycaemic episodes, E = number of events ([1]; 1.2 mg liraglutide): 263 | Total ADA classified hypoglycaemic episodes, N = number of subjects ([1]; 1.2 mg liraglutide): 13 | Total ADA classified hypoglycaemic episodes, percentage of subjects ([1]; 1.2 mg liraglutide): 92.9% | AEs leading to withdrawal, E = number of events [1, 5]: 1 | AEs leading to withdrawal, N = number of subjects [1, 5]: 1 | AEs leading to withdrawal, percentage of subjects [1, 5]: 7.1% | Abdominal distention, E = number of events [1, 5]: 5 | Abdominal distention, N = number of subjects [1, 5]: 5 | Abdominal distention, percentage of subjects [1, 5]: 35.7% | Abdominal pain (N % E, given as a single 0) [1, 5]: 0/ | Adverse events, total number of events, E = number of events [1, 5]: 54 | Adverse events, total number of events, N = number of subjects [1, 5]: 13 | Adverse events, total number of events, percentage of subjects [1, 5]: 92.9% | Diarrhea, E = number of events [1, 5]: 5 | Diarrhea, N = number of subjects [1, 5]: 5 | Diarrhea, percentage of subjects [1, 5]: 35.7% | Dyspepsia, E = number of events [1, 5]: 1 | Dyspepsia, N = number of subjects [1, 5]: 1 | Dyspepsia, percentage of subjects [1, 5]: 7.1% | Flatulence (N % E, given as a single 0) [1, 5]: 0/0 | Nausea, E = number of events [1, 5]: 13 | Nausea, N = number of subjects [1, 5]: 11 | Nausea, percentage of subjects [1, 5]: 78.6% | Regurgitation, E = number of events [1, 5]: 1 | Regurgitation, N = number of subjects [1, 5]: 1 | Regurgitation, percentage of subjects [1, 5]: 7.1% | Serious AEs (N % E, given as a single 0) [1, 5]: 0/0 | Total number of GI AEs, E = number of events [1, 5]: 31 | Total number of GI AEs, N = number of subjects [1, 5]: 13 | Total number of GI AEs, percentage of subjects [1, 5]: 92.9% | Upper abdominal pain, E = number of events [1, 5]: 2 | Upper abdominal pain, N = number of subjects [1, 5]: 2 | Upper abdominal pain, percentage of subjects [1, 5]: 14.3% | Vomiting, E = number of events [1, 5]: 4 | Vomiting, N = number of subjects [1, 5]: 3 | Vomiting, percentage of subjects [1, 5]: 21.4% | Asymptomatic hypoglycaemic episodes, N = number of subjects ([1]; 1.8 mg liraglutide): 13 | Asymptomatic hypoglycaemic episodes, percentage of subjects ([1]; 1.8 mg liraglutide): 92.9% | Documented symptomatic hypoglycaemic episodes, N = number of subjects ([1]; 1.8 mg liraglutide): 14 | Documented symptomatic hypoglycaemic episodes, percentage of subjects ([1]; 1.8 mg liraglutide): 100% | Probable symptomatic hypoglycaemic episodes, E = number of events ([1]; 1.8 mg liraglutide): 4 | Probable symptomatic hypoglycaemic episodes, N = number of subjects ([1]; 1.8 mg liraglutide): 1 | Probable symptomatic hypoglycaemic episodes, percentage of subjects ([1]; 1.8 mg liraglutide): 7.1% | Severe hypoglycaemic episodes, E = number of events ([1]; 1.8 mg liraglutide): 0 (0) 0/ | Severe hypoglycaemic episodes, N = number of subjects ([1]; 1.8 mg liraglutide): 0 (0) 0/ | Severe hypoglycaemic episodes, percentage of subjects ([1]; 1.8 mg liraglutide): 0 (0) 0/ % | Total ADA classified hypoglycaemic episodes, E = number of events ([1]; 1.8 mg liraglutide): 316 | Total ADA classified hypoglycaemic episodes, N = number of subjects ([1]; 1.8 mg liraglutide): 14 | Total ADA classified hypoglycaemic episodes, percentage of subjects ([1]; 1.8 mg liraglutide): 100% | Number of adverse events (AEs) compared to placebo ([1]; during liraglutide treatment): higher | Gastrointestinal (GI) AEs compared to placebo ([1]; liraglutide adjunct to insulin): more | Number of hypoglycaemias or overall number of hypoglycaemic episodes (ADA classification) ([1]; liraglutide adjunct to insulin): did not affect | Severity of GI AEs ([1]; liraglutide adjunct to insulin): mild or moderate | Safety or tolerability issues ([1]; short-term trial, subjects with type 1 diabetes): No unexpected liraglutide-related safety or tolerability issues | Change in pulse from plasma glucose […] to nadir, estimated treatment difference ([2]; 0.6 mg group vs placebo): 0.6 BPM | Change in pulse from plasma glucose […] to nadir, estimated treatment difference ([2]; 1.2 mg group vs placebo): 2.3 BPM | Change in pulse from plasma glucose […] to nadir, estimated treatment difference ([2]; 1.8 mg group vs placebo): −3.4 BPM | Pulse compared to placebo ([2]; all plasma glucose levels, all liraglutide doses): significantly higher | Other counterregulatory hormones to hypoglycaemia, liraglutide vs placebo ([2]; during hypoglycaemic clamp): no systematic differences | Systolic and diastolic blood pressure, liraglutide vs placebo ([2]; during hypoglycaemic clamp): no systematic differences
